These results are taken from patent US6096909A, “Taxoid anti-tumor agents and pharmaceutical compositions thereof” (The Research Foundation of State University of New York, priority 1997, dated 2000).

In data set [1] the test system is A121 human ovarian, A549 human non-small cell lung, HT-29 human colon and MCF7 human breast cancer cells. The data set is described as follows: Cytotoxicity against human cancer cell panel, stated jointly for the four lines.
For data set [2] the following is noted: relative to paclitaxel; cited from earlier work.
The conditions of data set [3]: relative to paclitaxel; cited from earlier work. The source holds these as a separate data set.
The conditions of data set [4]: recent report on clinical trials; cited from earlier work.
Data set [5] deals with MCF7 (mammary carcinoma). Description: Tumor cell growth inhibition (SRB), 72 h. In kind it is cell-based. The conditions noted are these: Homo sapiens, read-out: concentration of compound which inhibit 50% (IC50) of the growth of human tumor cell line.
For data set [6], the system named is drug-resistant tumors, e.g., adriamycin-resistant breast cancer. To be noted: cited from earlier work.
The subject of data set [7] is A549 (non-small cell lung carcinoma). Description: Tumor cell growth inhibition (SRB), 72 h. To be noted: Homo sapiens, read-out: concentration of compound which inhibit 50% (IC50) of the growth of human tumor cell line. In kind it is cell-based.
The subject of data set [8] is breast and lung cancers. The conditions noted are these: United States, Europe, and Japan; cited from earlier work.
The subject of data set [9] is HT-29 (colon carcinoma). Description: Tumor cell growth inhibition (SRB), 72 h. In kind it is cell-based. To be noted: Homo sapiens, read-out: concentration of compound which inhibit 50% (IC50) of the growth of human tumor cell line.
In data set [10] the test system is A121 (ovarian carcinoma). Description: Tumor cell growth inhibition (SRB), 72 h. In kind it is cell-based. The conditions noted are these: Homo sapiens, read-out: concentration of compound which inhibit 50% (IC50) of the growth of human tumor cell line.
Data set [11] deals with MCF7-R (mammary carcinoma cells 180-fold resistant to adriamycin). Description: Tumor cell growth inhibition (SRB), 72 h. In kind it is cell-based, human. To be noted: for IC50: Homo sapiens, MCF7R, read-out: concentration of compound which inhibit 50% (IC50) of the growth of human tumor cell line.
Data set [12] concerns human colon carcinoma cells HCT-116. To be noted: cited from earlier work.
The mark [13] stands for this setting: MCF7 (breast), 72 h drug exposure, mean of at least three experiments.
Setting [14] is: A549 (NSCLC), 72 h drug exposure, mean of at least three experiments.
Where [15] appears, read: HT-29 (colon), 72 h drug exposure, mean of at least three experiments.
Where [16] appears, read: A121 (ovarian), 72 h drug exposure, mean of at least three experiments.

The structures appear in SMILES notation. Like-named read-outs stand apart in the source and are kept apart here.

Regarding `CC(=O)O[C@@]12CO[C@@H]1C[C@H](O)[C@@]1(C)C(=O)[C@H](O)C3=C(C)[C@@H](OC(=O)[C@H](O)[C@H](C=Cc4ccccc4)NC(=O)OC(C)(C)C)C[C@@](O)([C@@H](OC(=O)c4ccccc4)[C@H]21)C3(C)C` [3'-dephenyl-3'-(2-phenylethenyl)docetaxel], the decreased cytotoxicity in data set [1] (fold decrease) was more than 20 times.
In the case of `CC(=O)O[C@@]12CO[C@@H]1C[C@H](O)[C@@]1(C)C(=O)[C@H](O)C3=C(C)[C@@H](OC(=O)[C@H](O)[C@H](CC(C)(C)C)NC(=O)OC(C)(C)C)C[C@@](O)([C@@H](OC(=O)c4ccccc4)[C@H]21)C3(C)C` [3'-dephenyl-3'-neopentyldocetaxel], in data set [1] (in words), the cytotoxicity entry is recorded as “virtually not cytotoxic”.
`CC(=O)O[C@@]12CO[C@@H]1C[C@H](O)[C@@]1(C)C(=O)[C@H](O)C3=C(C)[C@@H](OC(=O)[C@H](O)[C@@H](NC(=O)OC(C)(C)C)c4ccccc4)C[C@@](O)([C@@H](OC(=O)c4ccccc4)[C@H]21)C3(C)C` [Docetaxel]: the “antitumor activity compared with paclitaxel” value in data set [2] is “superior to paclitaxel”. For the same molecule, the “bioavailability compared with paclitaxel” value in data set [3] was “better bioavailability”. Moreover, the “side effects in clinical trials” value in data set [4] was “mouth sores and plunge in white blood cells”. The IC50 was 1 nM in [5] (setting [13]), 1 nM in data set [7] (setting [14]), 1.2 nM in data set [9] (setting [15]) and 1.2 nM in [10] (setting [16]). Besides, in data set [6], the “activity against drug-resistant tumors” value is given as “only a weak activity”. In data set [8], the “activity in phase II and III clinical trials” value was “excellent activities, especially against breast and lung cancers”.
In the case of `CC(=O)O[C@H]1C(=O)[C@@]2(C)[C@H]([C@H](OC(=O)c3ccccc3)[C@]3(O)C[C@H](OC(=O)[C@H](O)[C@@H](NC(=O)c4ccccc4)c4ccccc4)C(C)=C1C3(C)C)[C@]1(OC(C)=O)CO[C@@H]1C[C@@H]2O` [Paclitaxel], in [4], the “side effects in clinical trials” value is listed as “nerve damage, muscle pain or disturbances in heart rhythm”. Besides, the IC50 in data set [5] (MCF7, 72 h) turned out to be 1.7 nM; in [11] (72 h) it was 300 nM; in data set [9] (HT-29, 72 h), 3.2 nM; in data set [10] (A121, 72 h), 6.1 nM. Further, in data set [6], the “activity against drug-resistant tumors” value was “only a weak activity”.
With `CC(=O)O[C@H]1C(=O)[C@@]2(C)[C@H]([C@H](OC(=O)c3ccccc3)[C@]3(O)C[C@H](OC(=O)[C@H](O)[C@H](C=C(C)C)NC(=O)c4ccccc4)C(C)=C1C3(C)C)[C@]1(OC(C)=O)CO[C@@H]1C[C@@H]2O` [RAH-1, 3'-dephenyl-3'-isobutenylpaclitaxel], in data set [12] (relative to docetaxel), the “times better activity than docetaxel” value is 7 times. Also, in data set [12] (relative to paclitaxel), the “times better activity than paclitaxel” value is on record as 4 times. The IC50 worked out at 0.54 nM in [5] (MCF7, 72 h); 0.45 nM in [7] (A549, 72 h); 0.96 nM in data set [9] (HT-29, 72 h); 1.4 nM in data set [10] (A121, 72 h).
For the molecule `CC=C[C@H](NC(=O)OC(C)(C)C)[C@@H](O)C(=O)O[C@H]1C[C@@]2(O)[C@@H](OC(=O)c3ccccc3)[C@@H]3[C@]4(OC(C)=O)CO[C@@H]4C[C@H](O)[C@@]3(C)C(=O)[C@H](OC(C)=O)C(=C1C)C2(C)C` [Taxoid Ia], the IC50 came to 0.51 nM in data set [5] (setting [13]); 0.54 nM in data set [7] (setting [14]); 14 nM in data set [11] (MCF7-R, 72 h drug exposure, mean of at least three experiments); 0.76 nM in [9] (setting [15]); 0.9 nM in [10] (setting [16]). Besides, the “times better activity than docetaxel” value in [11] (MCF7-R, relative to docetaxel) stood at 17 times. In addition, the “times better activity than paclitaxel” value in [11] (MCF7-R, relative to paclitaxel) worked out at 21 times. Also, in data set [1] (relative to paclitaxel and docetaxel), the “activity spectrum compared with paclitaxel and docetaxel” value is on record as “considerably better activity spectrum”.
